Assay results as given in patent publication US12570657B2, “Mesylate salts of heterocyclic cytokinins, compositions containing these derivatives and use thereof” (UNIVERZITA PALACKEHO V OLOMOUCI, priority 2020, dated 2026).
Read-outs that look alike come from different tables or passages of the source.

Columns and labels:
[1] = Aqueous solubility: concentration of saturated solution by HPLC; format: physicochemical; settings: for solubility thermodynamic: thermodynamic from solid
Protocol: Aqueous solubility was measured using the following protocol. Supersaturated solution of meta-topolin mesylate salt was prepared. The solutions were filtered off from visible undissolved particles of the salt to obtain homogenic saturated solution. Saturated solution was diluted 1:10 000 and measured using HPLC Alliance Waters 2690 with C18 Symmetry column with the diameter 2.1 mm and 150 mm length with a porosity of 5 μm. The sample was dissolved in the mobile phase (MeOH: HCOONH4-1:9). The sample was washed with a methanol gradient (10-90%, 35 min) at pH 4 and a flow rate of 0.3 ml/min. The absorbances of the components were detected in the UV region at 210-400 nm. The peak area of meta-topolin mesylate salt was 595 027. The standard was measured as shown in the Table 9 below, Obtained peak area was compared to area peaks measured at certain concentration and the final concentration of saturated solution was determined
Solubility of other cytokinin (CK) mesylates was also determined by this method and the concentrations of saturated solutions are given below in Table 10: […]

[2] = test system: K562 (chronic myeloid leukemia); experiment: In vitro cytotoxicity, Calcein AM assay, K-562; format: cell-based; settings: 3-day Calcein-AM assay
Procedure, shortened: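 About 10,000 cells per well were seeded in DMEM or RPMI with 10% FBS and left 12 h before compound addition; DMSO-only wells served as controls. After 72 h at 37 °C, 5% CO2, Calcein AM (1 μg/ml final) was added for 1 h and calcein green fluorescence taken as viable-cell signal.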

[3] = test system: retinal epitelium cells ARPE-19; experiment: Cytotoxicity for non-cancer cells, resazurine reduction assay, ARPE-19
Protocol: It is used for viability testing of both bacterial and eukaryotic cells. […] Cultivation medium was DMEM with 10% FBS. Before the experiment, the cells were subcultured for 2 weeks. For the cytotoxicity evaluation, the cells were trypsinized and pipetted into 96 well plates (5000 cells per well in 80 microliters). After 24 hours, 5× concentrated solutions of the tested compounds in the medium were added. […] IC50 values were calculated from dose response curves using drc library for R programming environment.

[4] = test system: winter wheat leaf segments; experiment: Senescence bioassay: retention of chlorophyll in excised winter wheat leaf tips; format: in vivo, Triticum aestivum cv. Hereward; settings: chlorophyll retention at concentration with highest activity; 10^−4 M BAP = 100%
Protocol: Seeds of winter wheat, Triticum aestivum cv. Hereward, were washed under running water for 24 hours and then sown on vermiculite soaked with Knop's solution. They were placed in a growth chamber at 25° C. with a 16/8 h light/dark period at 50 μmol·m^−2·s^−1. After 7 days, the first leaf was fully developed and the second leaf had started to grow. A tip section of the first leaf, approximately 35 mm long, was removed from 5 seedlings and trimmed slightly to a combined weight of 100 mg. The basal ends of the five leaf tips were placed in the wells of a microtiter polystyrene plate containing 150 μl of each tested compound solution. The entire plate was inserted into a plastic box lined with paper tissues soaked in distilled water to prevent leaf sections from drying out. After 96 h incubation in the dark at 25° C., the leaves were removed and chlorophyll extracted by heating at 80° C. for 10 min in 5 ml of 80% ethanol (v/v). The sample volume was then restored to 5 ml by the addition of 80% ethanol (v/v). The absorbance of the extract was recorded at 665 nm. In addition, chlorophyll extracts from fresh leaves and leaf tips incubated in deionised water were measured. […] Relative activity of the compound at this concentration was calculated (Tab. 3). The activity obtained for 10^−4 M 6-benzylaminopurine (BAP) was postulated as 100%. The values shown are means of five replicates and the whole experiment was repeated twice. The tested cytokinin bases were dissolved in dimethylsulfoxide (DMSO) and the solution brought up to 10^−3 M with distilled water. Cytokinin mesylate salts which are more water-soluble (BAP mesylate, meta-topolin mesylate and kinetin mesylate) could be directly dissolved to form a 10^−3 M solution in distilled water.

[5] = test system: cytokinin-dependent tobacco callus; experiment: Tobacco callus biotest (stimulation of plant cell division); format: cell-based, Nicotiana tabacum L. cv. Wisconsin 38; settings: callus growth at concentration with highest activity; 10^−5 M BAP = 100%
[6] = saturated solution in water, free cytokinin base, read-out: c of free CK base
[7] = resazurin, 72 hour treatment, ARPE-19
[8] = saturated solution in water, cytokinin mesylate, read-out: c of CK mesylate

Compound | solubility thermodynamic [1, 6] [µM] | IC50 ([2]; Homo sapiens, K562, 72 h) [µM] | Cytotoxicity for Fibroblasts (GI20) ARPE-19 [3, 7] [μM] | activity (%) [10^−4 mol · l^−1 BAP = 100%] [4] [%] | activity (%) [10^−5 mol · l^−1 BAP = 100%] [5] [%] | concentration of saturated solution ([1]; water) | c of CK mesylate ([1]; saturated solution in water, cytokinin mesylate) | solubility thermodynamic [1, 8] [µM] | solubility thermodynamic ([1]; water, read-out: concentration of saturated solution) [µg/mL] | IC50 ([2]; mesylate) [µM] | solubility thermodynamic ([1]; water) [µM] | Cytotoxicity for Fibroblasts (GI20) ARPE-19 ([3]; human, 72 h) [μM]
Oc1ccccc1CNc1ncnc2nc[nH]c12 [ortho-topolin (oT), 6-(2-hydroxybenzylamino)purine] | 30 | > 167 | >100 | 67 | 86 |  |  |  |  |  |  | 
Oc1cccc(CNc2ncnc3nc[nH]c23)c1 [meta-topolin (mT), 6-(3-hydroxybenzylamino)purine] | 60 | 128 | >100 | 117 | 105 | 0.06 mg/mL |  |  |  |  |  | 
CS(=O)(=O)O.Oc1cccc(CNc2ncnc3nc[nH]c23)c1 [mT mesylate, 6-(3-hydroxybenzylamino)purine mesylate] |  |  | >100 | 109 | 111 | approximately 24010,81 μM | 24,011 mM | 24000 | 8000 | 142 |  | 
CS(=O)(=O)O.c1ccc(CNc2ncnc3nc[nH]c23)cc1 [BAP mesylate, 6-benzylaminopurine mesylate] |  |  | >100 | 108 | 104 |  |  | 354000 |  | > 167 |  | 
c1ccc(CNc2ncnc3nc[nH]c23)cc1 [BAP, 6-benzylaminopurine] |  | 139 |  | 100 | 100 |  |  |  |  |  | 370 | >100
COc1cccc(CNc2ncnc3nc[nH]c23)c1 [3MeOBAP, 6-(3-methoxybenzylamino)purine] | 210 | > 167 |  | 101 | 76 |  |  |  |  |  |  | 
